Blank lines part the entries; values can stand above or below the molecule they belong to.
System: 598228-144-R-J1-PDC complex spheroid viability
Assay: Anticancer human tumor 598228-144-R-J1-PDC patient-derived serous endometrial adenocarcinoma cell line growth inhibition [GQUAD]
Conditions: for IC50: curve of first compound; for viability, T/C: stronger effect = lower value
In short: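 Tumor cells were grown as complex spheroids with HUVEC endothelial cells and mesenchymal stem cells as stroma. G-quadruplex stabilizers were combined with targeted agents over half-log dilutions from near the clinical Cmax, or from 10 microM.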

[1] = second compound 0.0316 µM, first compound 0.000999 µM
[2] = second compound 0.0316 µM, first compound 0.00316 µM
[3] = second compound 0.0316 µM, first compound 0.00999 µM
[4] = second compound 0.0316 µM, first compound 0.0316 µM
[5] = second compound 0.0316 µM, first compound 0.0999 µM
[6] = second compound 0.0316 µM, first compound 0.316 µM
[7] = second compound 0.1 µM, first compound 0.000999 µM
[8] = second compound 0.1 µM, first compound 0.00316 µM
[9] = second compound 0.1 µM, first compound 0.00999 µM
[10] = second compound 0.1 µM, first compound 0.0316 µM
[11] = second compound 0.1 µM, first compound 0.0999 µM
[12] = second compound 0.1 µM, first compound 0.316 µM
[13] = second compound 0.316 µM, first compound 0.000999 µM
[14] = second compound 0.316 µM, first compound 0.00316 µM
[15] = second compound 0.316 µM, first compound 0.00999 µM
[16] = second compound 0.316 µM, first compound 0.0316 µM
[17] = second compound 0.316 µM, first compound 0.0999 µM
[18] = second compound 0.316 µM, first compound 0.316 µM
[19] = second compound 1 µM, first compound 0.000999 µM
[20] = second compound 1 µM, first compound 0.00316 µM
[21] = second compound 1 µM, first compound 0.00999 µM
[22] = second compound 1 µM, first compound 0.0316 µM
[23] = second compound 1 µM, first compound 0.0999 µM
[24] = second compound 1 µM, first compound 0.316 µM
[25] = second compound 3.16 µM, first compound 0.000999 µM
[26] = second compound 3.16 µM, first compound 0.00316 µM
[27] = second compound 3.16 µM, first compound 0.00999 µM
[28] = second compound 3.16 µM, first compound 0.0316 µM
[29] = second compound 3.16 µM, first compound 0.0999 µM
[30] = second compound 3.16 µM, first compound 0.316 µM
[31] = second compound 10 µM, first compound 0.000999 µM
[32] = second compound 10 µM, first compound 0.00316 µM
[33] = second compound 10 µM, first compound 0.00999 µM
[34] = second compound 10 µM, first compound 0.0316 µM
[35] = second compound 10 µM, first compound 0.0999 µM
[36] = second compound 10 µM, first compound 0.316 µM
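Further: spheroids exposed to the agents for one week before reading.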
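Wherever viability, T/C is given: percent of vehicle DMSO control viability so 100% = untreated growth.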

Structure (SMILES): CC[C@@]1(O)C(=O)OCc2c1cc1n(c2=O)Cc2cc3c(CN(C)C)c(O)ccc3nc2-1 + Cc1[nH]c2ccc(F)cc2c1-c1nc2c3cccnc3c3ncccc3c2[nH]1
IC50 (second compound 0.0316 µM): > 316 nM
IC50 (second compound 0.1 µM): > 316 nM
IC50 (second compound 0.316 µM): > 316 nM
IC50 (second compound 1 µM): 22.9 nM
IC50 (second compound 3.16 µM): < 0.999 nM
IC50 (second compound 10 µM): 31 nM
viability, T/C [1]: 106%
viability, T/C [2]: 105%
viability, T/C [3]: 93.5%
viability, T/C [4]: 90.7%
viability, T/C [5]: 63.1%
viability, T/C [6]: 71.5%
viability, T/C [7]: 104%
viability, T/C [8]: 95.4%
viability, T/C [9]: 84.4%
viability, T/C [10]: 88.7%
viability, T/C [11]: 58%
viability, T/C [12]: 62.3%
viability, T/C [13]: 86.8%
viability, T/C [14]: 83.7%
viability, T/C [15]: 61.9%
viability, T/C [16]: 64.6%
viability, T/C [17]: 75%
viability, T/C [18]: 52.3%
viability, T/C [19]: 64.6%
viability, T/C [20]: 76.8%
viability, T/C [21]: 59.3%
viability, T/C [22]: 44.7%
viability, T/C [23]: 53.4%
viability, T/C [24]: 41.2%
viability, T/C [25]: 39.1%
viability, T/C [26]: 57.1%
viability, T/C [27]: 39.9%
viability, T/C [28]: 35.7%
viability, T/C [29]: 33.6%
viability, T/C [30]: 31.4%
viability, T/C [31]: 71.6%
viability, T/C [32]: 58.9%
viability, T/C [33]: 63.3%
viability, T/C [34]: 41.5%
viability, T/C [35]: 50.1%
viability, T/C [36]: 34.7%

IC50 (second compound 0.0316 µM): > 316 nM
IC50 (second compound 0.1 µM): > 316 nM
IC50 (second compound 0.316 µM): > 316 nM
IC50 (second compound 1 µM): > 316 nM
IC50 (second compound 3.16 µM): > 316 nM
IC50 (second compound 10 µM): < 0.999 nM
Structure (SMILES): CC[C@@]1(O)C(=O)OCc2c1cc1n(c2=O)Cc2cc3c(CN(C)C)c(O)ccc3nc2-1 + Cc1cnc(CNC(=O)c2c(=O)c3ccc(N4CCCN(C)CC4)nc3n3c2sc2ccccc23)cn1
viability, T/C [1]: 83.8%
viability, T/C [2]: 107%
viability, T/C [3]: 93.2%
viability, T/C [4]: 81.6%
viability, T/C [5]: 54.8%
viability, T/C [6]: 53.9%
viability, T/C [7]: 85.1%
viability, T/C [8]: 80.2%
viability, T/C [9]: 65.5%
viability, T/C [10]: 68.7%
viability, T/C [11]: 64.2%
viability, T/C [12]: 63.6%
viability, T/C [13]: 69.2%
viability, T/C [14]: 67.9%
viability, T/C [15]: 68.8%
viability, T/C [16]: 78.2%
viability, T/C [17]: 73.1%
viability, T/C [18]: 76.6%
viability, T/C [19]: 71%
viability, T/C [20]: 72.9%
viability, T/C [21]: 71.1%
viability, T/C [22]: 68.3%
viability, T/C [23]: 75.7%
viability, T/C [24]: 58%
viability, T/C [25]: 67.4%
viability, T/C [26]: 58.6%
viability, T/C [27]: 58.7%
viability, T/C [28]: 52%
viability, T/C [29]: 65.6%
viability, T/C [30]: 59.4%
viability, T/C [31]: 42.5%
viability, T/C [32]: 41.2%
viability, T/C [33]: 47.7%
viability, T/C [34]: 52.3%
viability, T/C [35]: 36%
viability, T/C [36]: 40.9%

Structure (SMILES): C=CCn1c(=O)c2cnc(Nc3ccc(N4CCN(C)CC4)cc3)nc2n1-c1cccc(C(C)(C)O)n1 + Cc1[nH]c2ccc(F)cc2c1-c1nc2c3cccnc3c3ncccc3c2[nH]1
IC50 (second compound 0.0316 µM): 999 nM
IC50 (second compound 0.1 µM): > 10000 nM
IC50 (second compound 0.316 µM): > 10000 nM
IC50 (second compound 1 µM): > 10000 nM
IC50 (second compound 3.16 µM): < 31.6 nM
IC50 (second compound 10 µM): > 10000 nM
viability, T/C [4]: 110%
viability, T/C (second compound 0.0316 µM, first compound 0.1 µM): 102%
viability, T/C [6]: 83.2%
viability, T/C (second compound 0.0316 µM, first compound 1 µM): 48.3%
viability, T/C (second compound 0.0316 µM, first compound 3.16 µM): 47.1%
viability, T/C (second compound 0.0316 µM, first compound 10 µM): 52.8%
viability, T/C [10]: 125%
viability, T/C (second compound 0.1 µM, first compound 0.1 µM): 84.6%
viability, T/C [12]: 62.5%
viability, T/C (second compound 0.1 µM, first compound 1 µM): 53.4%
viability, T/C (second compound 0.1 µM, first compound 3.16 µM): 52.8%
viability, T/C (second compound 0.1 µM, first compound 10 µM): 55.9%
viability, T/C [16]: 77.7%
viability, T/C (second compound 0.316 µM, first compound 0.1 µM): 75.4%
viability, T/C [18]: 66.1%
viability, T/C (second compound 0.316 µM, first compound 1 µM): 48.9%
viability, T/C (second compound 0.316 µM, first compound 3.16 µM): 55.6%
viability, T/C (second compound 0.316 µM, first compound 10 µM): 62.4%
viability, T/C [22]: 52%
viability, T/C (second compound 1 µM, first compound 0.1 µM): 59.8%
viability, T/C [24]: 46.7%
viability, T/C (second compound 1 µM, first compound 1 µM): 48.7%
viability, T/C (second compound 1 µM, first compound 3.16 µM): 55%
viability, T/C (second compound 1 µM, first compound 10 µM): 74.5%
viability, T/C [28]: 40.1%
viability, T/C (second compound 3.16 µM, first compound 0.1 µM): 35.1%
viability, T/C [30]: 39.9%
viability, T/C (second compound 3.16 µM, first compound 1 µM): 44.6%
viability, T/C (second compound 3.16 µM, first compound 3.16 µM): 59%
viability, T/C (second compound 3.16 µM, first compound 10 µM): 62.3%
viability, T/C [34]: 73.6%
viability, T/C (second compound 10 µM, first compound 0.1 µM): 54.6%
viability, T/C [36]: 50.4%
viability, T/C (second compound 10 µM, first compound 1 µM): 42.4%
viability, T/C (second compound 10 µM, first compound 3.16 µM): 52.2%
viability, T/C (second compound 10 µM, first compound 10 µM): 57.7%
